For 16 molecules, IC50 results are on record in PubChem BioAssay AID810 (The Scripps Research Institute Molecular Screening Center, 2007).

Active and inactive are the calls of the source. How the calls were made is not given here.

Focal adhesion kinase 1 (Homo sapiens), sequence (Q05397 whole entry, looked up): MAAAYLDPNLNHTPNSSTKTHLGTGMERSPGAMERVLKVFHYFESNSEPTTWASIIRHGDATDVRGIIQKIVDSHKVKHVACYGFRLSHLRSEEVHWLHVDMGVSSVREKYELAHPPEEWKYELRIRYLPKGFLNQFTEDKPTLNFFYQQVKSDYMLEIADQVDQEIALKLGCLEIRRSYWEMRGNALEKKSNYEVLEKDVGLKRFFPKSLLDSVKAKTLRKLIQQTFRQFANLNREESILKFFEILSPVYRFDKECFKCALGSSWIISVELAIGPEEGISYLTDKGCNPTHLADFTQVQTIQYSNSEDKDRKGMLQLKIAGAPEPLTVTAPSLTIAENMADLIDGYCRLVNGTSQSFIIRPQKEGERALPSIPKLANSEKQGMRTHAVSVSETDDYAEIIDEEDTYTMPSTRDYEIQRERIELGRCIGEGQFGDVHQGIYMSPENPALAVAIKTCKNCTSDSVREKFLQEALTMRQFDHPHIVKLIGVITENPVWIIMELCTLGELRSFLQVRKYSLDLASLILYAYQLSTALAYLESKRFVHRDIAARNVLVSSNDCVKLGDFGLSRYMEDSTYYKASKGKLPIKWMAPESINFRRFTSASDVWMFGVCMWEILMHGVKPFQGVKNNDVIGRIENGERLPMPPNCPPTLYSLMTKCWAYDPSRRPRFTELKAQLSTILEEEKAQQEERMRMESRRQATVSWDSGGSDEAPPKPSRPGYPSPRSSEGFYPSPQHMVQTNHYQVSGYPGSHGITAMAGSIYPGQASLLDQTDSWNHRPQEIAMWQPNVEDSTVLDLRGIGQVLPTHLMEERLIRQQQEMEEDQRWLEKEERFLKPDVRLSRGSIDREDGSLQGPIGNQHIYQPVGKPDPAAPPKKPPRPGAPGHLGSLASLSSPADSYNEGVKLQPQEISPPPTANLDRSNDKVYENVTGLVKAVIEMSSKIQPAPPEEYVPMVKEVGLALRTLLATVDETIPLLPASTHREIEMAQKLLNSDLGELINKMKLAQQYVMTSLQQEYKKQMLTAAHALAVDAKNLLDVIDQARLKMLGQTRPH

The experiment has as its target Focal adhesion kinase 1 (Homo sapiens) (UniProt Q05397). As to the kind of experiment: human PTK2 enzyme blockers, IC50 – biochemical, dose response (AID 810). Particulars: Recombinant FAK kinase activity inhibition assay.
Take `CCOCCOC(=O)C1=C(C)NC2=C(C(=O)CC(c3cccs3)C2)C1c1ccsc1` (stereo unspecified): the IC50 is > 70 µM (inactive).
In the case of `CCOC(=O)c1sc2c(c1C)C(c1cccs1)C1=C(CCCC1=O)N2` (stereo unspecified) it was > 70 µM (inactive); in that of `CCOC(=O)c1cccc2c1-c1ccccc1/C2=N/O`, “inactive”; in that of `O=C1C(c2ccnc3ccccc23)=C(O)c2ccccc21`, 5.64 µM.
Regarding `N#Cc1ccccc1/C=N/Nc1nc(-c2ccccc2)c2cc(Cl)ccc2n1`, the IC50 entry was “inactive”.
With `CCOC(=O)C1=C(c2ccccc2)OC(N)=C(C#N)C1C1CCCCC1` (stereo unspecified), the IC50 is > 70 µM (inactive).
Turning to `COCCOC(=O)C1=C(C)NC2=C(C(=O)CC(c3cccs3)C2)C1c1ccsc1` (stereo unspecified), the IC50 is > 70 µM (inactive).
Regarding `O=c1c(/C=N/O)c(Nc2ccccc2)nc2ccccn12`, the IC50 result is “inactive”.
For `COc1cccc(CN2CC(O)=C(c3nc(-c4ccc(Cl)cc4)cs3)C2=N)c1` the value was “inactive”.
In the case of `COC(=O)c1cccc2c1-c1ccccc1/C2=N/O` it was 9.43 µM; in that of `O=[N+]([O-])c1cc(/C=N\Nc2nccs2)ccc1O`, 5.82 µM; in that of `CN1CCc2c(sc3ncn4nc(-c5ccccc5O)nc4c23)C1`, “inactive”.
For `Cc1nn2c(c1-c1ccccc1)NC1=C(C(=O)CCC1)C2c1ccccc1` (stereo unspecified) the value was > 70 µM (inactive).
In the case of `CCOC(=O)C1=C(c2ccccc2)OC(N)=C(C#N)C1c1cccs1` (stereo unspecified), the IC50 is > 70 µM (inactive).
As for `COc1cc(N=Cc2c(O)[nH]c3ccccc23)cc(OC)c1OC`, the IC50 was 3.13 µM.
With `COC(=O)C1=C(C)NC2=C(C(=O)CC(c3cccs3)C2)C1c1ccsc1` (stereo unspecified), the IC50 was > 70 µM (inactive).

As usually defined, the IC50 is the point on the concentration scale where inhibition reaches its midpoint.
